Paper PMC6234094 (Bioorganic & medicinal chemistry, 2018)

How the values were obtained:
LasR [1] = conditions: cited from earlier work
QscR [2] = target: T1, QscR (Pseudomonas aeruginosa, UniProt G3XD77); test: QscR agonism, E. coli JLD271; assay type: cell-based; conditions: for Reduction in potency relative to OdDHL (1) in QscR: ratio of EC50 to that of OdDHL, QscR reporter; for QscR agonism, result in words: E. coli QscR reporter
LasR [3] = target: T2, LasR (Pseudomonas aeruginosa, UniProt P25084); test: LasR agonism, E. coli JLD271; assay type: cell-based; conditions: for Loss in potency (EC50) relative to OdDHL (1) in LasR: ratio of EC50 to that of OdDHL, LasR reporter
T2 sequence (P25084 whole entry): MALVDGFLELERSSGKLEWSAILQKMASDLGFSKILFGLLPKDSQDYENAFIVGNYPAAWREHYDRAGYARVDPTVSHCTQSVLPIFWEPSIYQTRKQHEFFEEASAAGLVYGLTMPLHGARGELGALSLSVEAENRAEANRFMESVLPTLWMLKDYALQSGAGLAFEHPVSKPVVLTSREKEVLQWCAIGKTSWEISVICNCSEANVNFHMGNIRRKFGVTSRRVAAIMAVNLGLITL

QscR [4] = target: T1, QscR; test: QscR antagonism in competition with OdDHL, E. coli reporter assay; assay type: cell-based
LasR [5] = target: T2, LasR; test: LasR antagonism in competition with OdDHL, E. coli reporter assay; assay type: cell-based; conditions: dose response in competition against OdDHL (1)
QscR [6] = target: T1, QscR; conditions: cited from earlier work

Structure (SMILES) | LasR agonism, result in words (earlier report) (LasR [1]) | Reduction in potency relative to OdDHL (1) in QscR (QscR [2]) | Loss in potency (EC50) relative to OdDHL (1) in LasR (LasR [3]) | QscR agonism, result in words (QscR [2]) | also measured
CCCCCCCCCC(=O)CC(=O)N[C@H]1CCSC1=O [Compound 3] | agonize LasR comparably to OdDHL | five-fold less potent |  |  | 
CCCCCCCCCC(=O)CC(=O)N[C@H]1CCNC1=O [Compound 4] |  | > 200 fold | 10–20 fold |  | Potency in LasR relative to OdDHL based on EC50 (earlier report) (LasR [1]; less potent than OdDHL): about 100 fold
CCCCCCCCCC(=O)CC(=O)N[C@H]1CCCC1=O [Compound 5] | retained agonistic activity in LasR but was not nearly as potent as OdDHL | ~ 55 fold | 10–20 fold |  | 
CCCCCCCCCC(=O)CC(=O)NC1CCCC1 [Compound 6] | some agonistic activity | 24 fold | 100 fold |  | 
CCCCCCCCCC(=O)CC(=O)N[C@H]1CCOC1 [Compound 7] |  |  | 600 fold |  | 
CCCCCCCCCC(=O)CC(=O)N[C@H]1CCO[C@@H]1O [Compound 8] |  |  | ~ 1200 fold | very weak QscR agonist | Concentration at which LasR is agonized (earlier report) (LasR [1]; only at very high concentrations): 400 µM
CCCCCCCCCC(=O)CC(=O)NCC1CCCO1 (centres unmarked) [Compound 9] |  |  |  | negligible activity | IC50 (QscR [4]): > 250 µM
CCCCCCCCCCCS(=O)(=O)N[C@H]1CCOC1=O [Compound 10] |  |  |  | weak agonistic activity | LasR activity, result in words (earlier report) (LasR [1]): inactive; LasR antagonism, result in words (LasR [5]): failed to antagonize LasR; LasR agonism, result in words (LasR [3]; E. coli LasR reporter): inactive; QscR activity, result in words (earlier report) (QscR [6]): mild agonist
CCCCCCCCCC(=O)CC(=O)O[C@H]1CCOC1=O [Compound 11] |  |  |  |  | IC50 (QscR [4]): > 250 µM
